Laboratory results published in patent publication US8629143B2, “Potassium channel modulators” (AbbVie Inc., priority 2009, dated 2014).

Target: T1, KCNQ 2/3 channels (HEK293 cells stably expressing human KCNQ2 and KCNQ3 subunits) (Homo sapiens, UniProt O43525+O43526)
T1 construct: expressed in transfected cells; host or cells: HEK293
Test: KCNQ2/3 channel activation, thallium flux FLIPR assay with BTC-AM dye
Assay type: cell-based
Conditions: for Emax: HEK293, maximum response relative to the response produced by 10 μM retigabine (set at 100%), read-out: Max. %; for EC50: HEK293 cells expressing human KCNQ2 and KCNQ3, thallium flux, FLIPR
Description: The following example describes the assay that can be used to identify compounds that activate KCNQ 2/3 channels.
HEK293 cells stably expressing human KCNQ2 and KCNQ3 subunits were seeded in 96-well, black-walled, clear-bottomed, poly-D-lysine coated plates (BD Biosciences, Bedford, Mass.) at a density of 1×10^5 cells per well 24 hours before the assay. On the assay day, BTC-AM dye (Invitrogen, Carlsbad, Calif.) was loaded into the cells by replacing the cell culture medium with 55 μL/well of 3 μg/mL dye in DPBS. Dye loading was allowed to proceed for 2 hours at room temperature and then cells were washed twice with 50 μL/well of assay buffer (in mM: 10 HEPES pH 7.3, 5 glucose, 140 Na-gluconate, 2.5 K-gluconate, 3.6 Ca-gluconate, 2 MgSO4, 0.1 Ouabain) to remove unloaded dye. Cells were incubated in 50 μL of assay buffer before loading onto a FLIPR system (Molecular Devices, Sunnyvale, Calif.). Various concentrations of compounds to be assayed were added to the cells in 50 μL of assay buffer and incubated for 4 minutes. The fluorescence signal was initiated by adding 100 μL of assay buffer containing 6 mM TlNO3 and 10 mM K2SO4. Fluors were excited using the 488-nm line of an argon laser and emission was filtered using a 540±30 nm bandpass filter. Fluorescent signals were recorded for 3 minutes. Sums of the responses over basal responses were plotted versus concentrations of test compounds to obtain an EC50 value. The maximum response for each test compound was determined relative to the response produced by 10 μM retigabine. The maximum response of retigabine at 10 μM was set at 100%.

Structure (SMILES)	Emax [%]	EC50 [µM]
O=C(Cc1ccc(Cl)cc1)Nn1nc(-c2ccccc2)c2c(F)ccc(F)c2c1=O [Example 16, 2-(4-chlorophenyl)-N-(5,8-difluoro-1-oxo-4-phenylphthalazin-2(1H)-yl)acetamide]	175	0.1 to 0.5
O=C(Cc1cc(F)cc(F)c1)Nn1nc(-c2ccccc2)c2ccccc2c1=O [Example 18, 2-(3,5-difluorophenyl)-N-(1-oxo-4-phenylphthalazin-2(1H)-yl)acetamide]	189	0.1 to 0.5
O=C(Cc1cc(F)cc(F)c1)Nn1nc(Cl)c2ccccc2c1=O [Example 19, N-(4-chloro-1-oxophthalazin-2(1H)-yl)-2-(3,5-difluorophenyl)acetamide]	45	1 to 10
O=C(CC12CC3CC(CC(C3)C1)C2)Nn1nc(Cl)c2ccccc2c1=O [Example 20, 2-(1-adamantyl)-N-(4-chloro-1-oxophthalazin-2(1H)-yl)acetamide]	123	0.1 to 0.5
O=C(Cc1ccc(Cl)cc1)Nn1nc(Cl)c2ccccc2c1=O [Example 21, N-(4-chloro-1-oxophthalazin-2(1H)-yl)-2-(4-chlorophenyl)acetamide]	82	1 to 10
O=C(Cc1ccc(Cl)cc1)Nn1nc(C2CC2)c2ccccc2c1=O [Example 22, 2-(4-chlorophenyl)-N-(4-cyclopropyl-1-oxophthalazin-2(1H)-yl)acetamide]	63	1 to 10
O=C(Cc1cc(F)cc(F)c1)Nn1nc(C2CC2)c2ccccc2c1=O [Example 23, N-(4-cyclopropyl-1-oxophthalazin-2(1H)-yl)-2-(3,5-difluorophenyl)acetamide]	156	0.5 to 1
O=C(CC12CC3CC(CC(C3)C1)C2)Nn1nc(C2CC2)c2ccccc2c1=O [Example 24, 2-(1-adamantyl)-N-(4-cyclopropyl-1-oxophthalazin-2(1H)-yl)acetamide]	235	< 0.1
O=C(Cc1cccc(F)c1F)Nn1nc(-c2ccccc2)c2ccccc2c1=O [Example 25, 2-(2,3-difluorophenyl)-N-(1-oxo-4-phenylphthalazin-2(1H)-yl)acetamide]	139	1 to 10
O=C(Cc1ccc(F)cc1)Nn1nc(-c2ccccc2)c2ccccc2c1=O [Example 26, 2-(4-fluorophenyl)-N-(1-oxo-4-phenylphthalazin-2(1H)-yl)acetamide]	157	0.1 to 0.5
O=C(Cc1cc(F)ccc1F)Nn1nc(-c2ccccc2)c2ccccc2c1=O [Example 27, 2-(2,5-difluorophenyl)-N-(1-oxo-4-phenylphthalazin-2(1H)-yl)acetamide]	92	0.5 to 1
Cc1nn(NC(=O)Cc2ccc(Cl)cc2)c(=O)c2ccccc12 [Example 28, 2-(4-chlorophenyl)-N-(4-methyl-1-oxophthalazin-2(1H)-yl)acetamide]	121	1 to 10
O=C(CC12CC3CC(CC(C3)C1)C2)Nn1nc(-c2ccccc2)c2ccsc2c1=O [Example 29, 2-(1-adamantyl)-N-(7-oxo-4-phenylthieno[2,3-d]pyridazin-6(7H)-yl)acetamide]	173	0.1 to 0.5
CC1(C)[C@H]2CC[C@@H](CC(=O)Nn3nc(-c4ccccc4)c4ccsc4c3=O)[C@@H]1C2 [Example 30, 2-[(1S,2S,5S)-6,6-dimethylbicyclo[3.1.1]hept-2-yl]-N-(7-oxo-4-phenylthieno[2,3-d]pyridazin-6(7H)-yl)acetamide]	94	1 to 10
O=C(Cc1ccc(Cl)cc1)Nn1nc(-c2ccccc2)c2ccsc2c1=O [Example 31, 2-(4-chlorophenyl)-N-(7-oxo-4-phenylthieno[2,3-d]pyridazin-6(7H)-yl)acetamide]	30	1 to 10
O=C(Cc1ccc(F)cc1)Nn1nc(-c2ccccc2)c2ccsc2c1=O [Example 32, 2-(4-fluorophenyl)-N-(7-oxo-4-phenylthieno[2,3-d]pyridazin-6(7H)-yl)acetamide]	46	1 to 10
O=C(Cc1cc(F)cc(F)c1)Nn1nc(-c2ccccc2)c2ccsc2c1=O [Example 33, 2-(3,5-difluorophenyl)-N-(7-oxo-4-phenylthieno[2,3-d]pyridazin-6(7H)-yl)acetamide]	140	1 to 10
CC(C)c1nn(NC(=O)CC23CC4CC(C)(CC(C)(C4)C2)C3)c(=O)c2ccccc12 [Example 34, 2-[3,5-dimethyl-1-adamantyl]-N-(4-isopropyl-1-oxophthalazin-2(1H)-yl)acetamide]	184	0.1 to 0.5

Structure (SMILES)	Emax [%]	EC50 [µM]
O=C(Cc1cc(F)cc(F)c1)Nn1nc(-c2ccccc2)c2cc(F)ccc2c1=O [Example 35, 2-(3,5-difluorophenyl)-N-(6-fluoro-1-oxo-4-phenylphthalazin-2(1H)-yl)acetamide]	192	0.1 to 0.5
O=C(Cc1ccc(Cl)cc1)Nn1nc(-c2ccccc2)c2cc(F)ccc2c1=O [Example 36, 2-(4-chlorophenyl)-N-(6-fluoro-1-oxo-4-phenylphthalazin-2(1H)-yl)acetamide]	155	0.1 to 0.5
O=C(CC12CC3CC(CC(C3)C1)C2)Nn1nc(-c2ccccc2)c2cc(F)ccc2c1=O [Example 37, 2-(1-adamantyl)-N-(6-fluoro-1-oxo-4-phenylphthalazin-2(1H)-yl)acetamide]	179	< 0.1
Cc1nn(NC(=O)Cc2cc(F)cc(F)c2)c(=O)c2ccccc12 [Example 38, 2-(3,5-difluorophenyl)-N-(4-methyl-1-oxophthalazin-2(1H)-yl)acetamide]	126	> 10
O=C(CC1(c2ccc(Cl)cc2)CC1)Nn1nc(C(F)(F)F)c2ccccc2c1=O [Example 39, 2-[1-(4-chlorophenyl)cyclopropyl]-N-[1-oxo-4-(trifluoromethyl)phthalazin-2(1H)-yl]acetamide]	11	> 10
O=C(CC1(c2ccc(Cl)cc2)CCC1)Nn1nc(C(F)(F)F)c2ccccc2c1=O [Example 40, 2-[1-(4-chlorophenyl)cyclobutyl]-N-[1-oxo-4-(trifluoromethyl)phthalazin-2(1H)-yl]acetamide]	7	> 10
CC(C)(CC(=O)Nn1nc(C(F)(F)F)c2ccccc2c1=O)c1ccc(Cl)cc1 [Example 42, 3-(4-chlorophenyl)-3-methyl-N-[1-oxo-4-(trifluoromethyl)phthalazin-2(1H)-yl]butanamide]	103	0.1 to 0.5
O=C(CC1CCCC1)Nn1nc(C(F)(F)F)c2ccccc2c1=O [Example 43, 2-cyclopentyl-N-[1-oxo-4-(trifluoromethyl)phthalazin-2(1H)-yl]acetamide]	112	0.1 to 0.5
O=C(Nn1nc(C(F)(F)F)c2ccccc2c1=O)C(F)(F)c1ccccc1 [Example 44, 2,2-difluoro-N-[1-oxo-4-(trifluoromethyl)phthalazin-2(1H)-yl]-2-phenylacetamide]	35	> 10
O=C(CC1CCC1)Nn1nc(C(F)(F)F)c2ccccc2c1=O [Example 45, 2-cyclobutyl-N-[1-oxo-4-(trifluoromethyl)phthalazin-2(1H)-yl]acetamide]	84	1 to 10
CN(C)c1ccc(CC(=O)Nn2nc(C(F)(F)F)c3ccccc3c2=O)cc1 [Example 47, 2-[4-(dimethylamino)phenyl]-N-[1-oxo-4-(trifluoromethyl)phthalazin-2(1H)-yl]acetamide]	7	> 10
CC(C)(C)CC(=O)Nn1nc(C(F)(F)F)c2ccccc2c1=O [Example 48, 3,3-dimethyl-N-[1-oxo-4-(trifluoromethyl)phthalazin-2(1H)-yl]butanamide]	77	1 to 10
CS(=O)(=O)c1ccc(CC(=O)Nn2nc(C(F)(F)F)c3ccccc3c2=O)cc1 [Example 49, 2-[4-(methylsulfonyl)phenyl]-N-[1-oxo-4-(trifluoromethyl)phthalazin-2(1H)-yl]acetamide]	3	> 10
O=C(CCc1ccccc1)Nn1nc(C(F)(F)F)c2ccccc2c1=O [Example 50, N-[1-oxo-4-(trifluoromethyl)phthalazin-2(1H)-yl]-3-phenylpropanamide]	116	> 10
O=C(CC1(c2ccccc2)CC1)Nn1nc(C(F)(F)F)c2ccccc2c1=O [Example 51, N-[1-oxo-4-(trifluoromethyl)phthalazin-2(1H)-yl]-2-(1-phenylcyclopropyl)acetamide]	-2	> 10
CC(C)(CC(=O)Nn1nc(C(F)(F)F)c2ccccc2c1=O)c1ccccc1 [Example 52, 3-methyl-N-[1-oxo-4-(trifluoromethyl)phthalazin-2(1H)-yl]-3-phenylbutanamide]	116	0.1 to 0.5
O=C(Cc1ccsc1)Nn1nc(C(F)(F)F)c2ccccc2c1=O [Example 53, N-[1-oxo-4-(trifluoromethyl)phthalazin-2(1H)-yl]-2-(3-thienyl)acetamide]	61	1 to 10
